Experimental data reported in ChEMBL document CHEMBL5257089, “Gamabufotalin Induces Apoptosis and Cytoprotective Autophagy through the mTOR Signaling Pathway in Hepatocellular Carcinoma” (J Nat Prod, 2023).
Calls of active or inactive are those of the source. No cut-off for these calls is given here.

Test system: Hep 3B2
Assay: Induction of apoptosis in human Hep3B cells assessed as fragmented nuclei at […] incubated for 48 hrs by Hoechst33258 staining based fluorescence microscopy
Assay type: functional, cell-based

In the case of `C[C@]12CC[C@H](O)C[C@H]1CC[C@@H]1[C@@H]2[C@H](O)C[C@]2(C)[C@@H](c3ccc(=O)oc3)CC[C@]12O` [GAMABUFOTALIN], the Activity is reported as “Active”.
